Data reported in article PMC2831638 (Biochemistry, 2010).
“Also recorded” adds a separate entry of the source. Ends that are not written are not given here.

What was measured:
[1] = Peptide solubility, filtration assay with AAA; format: physicochemical; conditions: pH 7.4
[2] = tested on: Aβ42-induced toxicity in differentiated PC-12 cells; conditions: cell-viability screen; cited from earlier work

Row | Substance | Max. solubility [1] | toxicity of the peptide itself (in words) [2] | also measured
1 | AEDVGSNKGA [Aβ(21–30)] | 129 ± 5 µM |  | 
2 | IGLMVGGVVIA [Aβ(32–42)] |  | slight toxicity | 
3 | KGAIIGLMVGGVVIA [Aβ(28–42)] |  | highly toxic itself; also recorded: higher toxicity than Aβ42 itself | 
4 | LMVGGVV [Aβ(34–40)] | 169 ± 13 µM |  | 
5 | VVIA [Aβ(39–42)] |  |  | inhibition of Aβ42-induced toxicity (in words) [2]: strongest inhibitors
